Data taken from patent publication US11986471B2, “Compounds and methods of use” (Tango Therapeutics, Inc., priority 2018, dated 2024).
pIC50: −log10 of the molar value.

Experiments:
[1] = test system: HAP1 MTAP-intact; test: SDMA in-cell western assay, HAP1 MTAP-intact cell line; assay type: cell-based; conditions: Homo sapiens
Summary of the method: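 IC50 values come from SDMA in-cell western staining of HAP1 cells. The MTAP-intact line carries endogenous MTAP, while its MTAP-deleted counterpart lacks MTAP entirely. A selectivity ratio of at least 3 fold marks a compound as MTAP-selective.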

[2] = test system: HAP1 MTAP-deleted; test: SDMA in-cell western assay, HAP1 MTAP-deleted cell line; assay type: cell-based; conditions: for pIC50: Homo sapiens, HAP1 MTAP-deleted cell line; for MTAP Intact/Deleted Ratio: IC50 ratio HAP1 MTAP-intact / HAP1 MTAP-deleted
Summary of the method: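 Readout is cellular SDMA signal by in-cell western, with IC50 values derived from it. The cells are MTAP-null HAP1, matched to an isogenic MTAP-intact HAP1 line.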

[3] = molecular target: T1, PRMT5 (Homo sapiens, UniProt O14744); test: PRMT5 IC50 assay with no cofactor; assay type: biochemical; conditions: read-out: No Co-factor IC50
T1 construct: purchased Viva (custom protein)
T1 sequence (O14744 whole entry): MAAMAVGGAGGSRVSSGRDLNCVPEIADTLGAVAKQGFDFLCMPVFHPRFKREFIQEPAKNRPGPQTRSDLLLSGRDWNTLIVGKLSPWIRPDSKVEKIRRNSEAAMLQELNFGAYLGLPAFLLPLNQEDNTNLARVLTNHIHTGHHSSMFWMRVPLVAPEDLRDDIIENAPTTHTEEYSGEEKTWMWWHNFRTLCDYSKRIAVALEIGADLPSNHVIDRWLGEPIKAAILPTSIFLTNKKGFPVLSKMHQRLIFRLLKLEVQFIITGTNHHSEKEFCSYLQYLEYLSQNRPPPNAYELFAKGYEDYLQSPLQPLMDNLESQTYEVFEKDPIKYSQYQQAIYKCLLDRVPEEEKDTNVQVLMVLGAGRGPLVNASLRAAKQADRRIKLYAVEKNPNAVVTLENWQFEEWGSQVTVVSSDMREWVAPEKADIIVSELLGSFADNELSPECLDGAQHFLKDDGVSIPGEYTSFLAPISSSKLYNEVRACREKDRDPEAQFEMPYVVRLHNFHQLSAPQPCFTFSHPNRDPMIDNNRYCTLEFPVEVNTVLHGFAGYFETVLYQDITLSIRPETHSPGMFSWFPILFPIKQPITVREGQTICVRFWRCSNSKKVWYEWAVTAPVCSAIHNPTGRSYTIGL
T1 sequence (Q9BQA1 whole entry partner): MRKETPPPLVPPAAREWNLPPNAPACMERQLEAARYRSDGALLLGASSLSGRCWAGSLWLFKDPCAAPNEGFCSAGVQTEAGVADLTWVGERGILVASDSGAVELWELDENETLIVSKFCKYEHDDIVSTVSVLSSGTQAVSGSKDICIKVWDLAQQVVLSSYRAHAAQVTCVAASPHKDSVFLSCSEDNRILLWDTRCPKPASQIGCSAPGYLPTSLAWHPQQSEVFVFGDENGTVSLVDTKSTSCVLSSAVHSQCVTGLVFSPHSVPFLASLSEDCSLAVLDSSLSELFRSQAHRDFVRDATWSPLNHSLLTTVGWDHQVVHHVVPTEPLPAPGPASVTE
Summary of the method: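 Values reflect IC50 (μM) on human PRMT5 under three cofactor states. Selectivity is derived as the quotient of SAM-state Ki over MTA-state Ki, with each Ki obtained from its IC50.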

[4] = molecular target: T1, PRMT5; test: PRMT5 IC50 assay in the presence of SAM as cofactor; assay type: biochemical
Summary of the method: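 Three cofactor conditions are run: SAM-bound, MTA-bound and cofactor-free enzyme. IC50 is read from each; for the SAM and MTA arms it is divided by 1.5 and 13.5 respectively to give Ki.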

[5] = molecular target: T1, PRMT5; test: PRMT5 IC50 assay in the presence of MTA as cofactor; assay type: biochemical; conditions: for pIC50: PRMT5, MTA as cofactor; for SAM/MTA Ratio: ratio between Ki in the presence of SAM and Ki in the presence of MTA
Summary of the method: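 IC50 values were measured against human PRMT5 with SAM, with MTA, or with no cofactor. Ki was derived from IC50 as Ki=IC50/1.5 with SAM and Ki=IC50/13.5 with MTA, and the Ki(SAM)/Ki(MTA) ratio was then taken.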

pIC50 [1]	pIC50 [2]	pIC50 [3]	pIC50 [4]	pIC50 [5]	Structure (SMILES)	MTAP Intact/Deleted Ratio [2]	SAM/MTA Ratio [5]
> 6.00	> 6.00	≤ 5.30	5.30 to 6.30	5.30 to 6.30	Cc1ncoc1COc1ccc2c(c1)CCN(C[C@@H](O)CNC(=O)c1cccc(NC3CCC3)c1)C2 [Compound 283, (S)-3-(cyclobutylamino)-N-(2-hydroxy-3-(6-((4-methyloxazol-5-yl)methoxy)-3,4-dihydroisoquinolin-2(1H)-yl)propyl)benzamide]	C* (an IC50 ratio of less than 3 fold between the IC50 in the HAP1 MTAP-intact cell line and the HAP1 MTAP-deleted cell line)	A (a Ki ratio greater than or equal to 10 fold between the Ki in the presence of SAM and the Ki in the presence of MTA)
> 6.00	> 6.00	≤ 5.30	5.30 to 6.30	6.30 to 7.30	O=C(NC[C@H](O)CN1CCc2cc(OCc3cnco3)ccc2C1)c1cc(NC2CCC2)ncc1Cl [Compound 284, 5-chloro-2-(cyclobutylamino)-N-[(2S)-2-hydroxy-3-[6-(oxazol-5-ylmethoxy)-3N-dihydro-1H-isoquinolin-2-yl]propyl]pyridine-4-carboxamide]	C* (an IC50 ratio of less than 3 fold between the IC50 in the HAP1 MTAP-intact cell line and the HAP1 MTAP-deleted cell line)	A (a Ki ratio greater than or equal to 10 fold between the Ki in the presence of SAM and the Ki in the presence of MTA)
≤ 5.00	5.00 to 6.00	5.30 to 6.30	6.30 to 7.30	6.30 to 7.30	CN1CCN(c2nc(NC3COC3)cc(C(=O)NC[C@H](O)CN3CCc4c(ccc(OCc5cnco5)c4Cl)C3)n2)CC1 [Compound 285, (S)—N-(3-(5-chloro-6-(oxazol-5-ylmethoxy)-3,4-dihydroisoquinolin-2(1H)-yl)-2-hydroxypropyl)-2-(4-methylpiperazin-1-yl)-6-(oxetan-3-ylamino)pyrimidine-4-carboxamide]	C* (an IC50 ratio of less than 3 fold between the IC50 in the HAP1 MTAP-intact cell line and the HAP1 MTAP-deleted cell line)	A (a Ki ratio greater than or equal to 10 fold between the Ki in the presence of SAM and the Ki in the presence of MTA)
5.00 to 6.00	5.00 to 6.00	5.30 to 6.30	6.30 to 7.30	6.30 to 7.30	CCN1CCN(c2cc(C(=O)NC[C@H](O)CN3CCc4cc(OCc5cnco5)ccc4C3)cc(NC3CCC3)n2)CC1 [Compound 286]	B* (an IC50 ratio greater than or equal to 3 fold but lower than 10 fold between the IC50 in the HAP1 MTAP-intact cell line and the HAP1 MTAP-deleted cell line)	A (a Ki ratio greater than or equal to 10 fold between the Ki in the presence of SAM and the Ki in the presence of MTA)
≤ 5.00	≤ 5.00	≤ 5.30	5.30 to 6.30	5.30 to 6.30	CC(C)Cc1cc(C(=O)NC[C@H](O)CN2CCc3c(ccc(OCc4cnco4)c3Cl)C2)cc(NC2CCC2)n1 [Compound 287]	C* (an IC50 ratio of less than 3 fold between the IC50 in the HAP1 MTAP-intact cell line and the HAP1 MTAP-deleted cell line)	A (a Ki ratio greater than or equal to 10 fold between the Ki in the presence of SAM and the Ki in the presence of MTA)
≤ 5.00	5.00 to 6.00	≤ 5.30	5.30 to 6.30	6.30 to 7.30	O=C(NC[C@H](O)CN1CCc2c(ccc(OCc3cnco3)c2Cl)C1)c1cc(NC2CCC2)nc(N2CCOCC2)c1 [Compound 288, (S)—N-(3-(5-chloro-6-(oxazol-5-ylmethoxy)-3N-dihydroisoquinolin-2(1H)-yl)-2-hydroxypropyl)-2-(cyclobutylamino)-6-morpholinoisonicotinamide]	C* (an IC50 ratio of less than 3 fold between the IC50 in the HAP1 MTAP-intact cell line and the HAP1 MTAP-deleted cell line)	A (a Ki ratio greater than or equal to 10 fold between the Ki in the presence of SAM and the Ki in the presence of MTA)
5.00 to 6.00	5.00 to 6.00	5.30 to 6.30	6.30 to 7.30	6.30 to 7.30	CCN(C)c1nc(NC2COC2)cc(C(=O)NC[C@H](O)CN2CCc3cc(OCc4cnco4)ccc3C2)n1 [Compound 289]	B* (an IC50 ratio greater than or equal to 3 fold but lower than 10 fold between the IC50 in the HAP1 MTAP-intact cell line and the HAP1 MTAP-deleted cell line)	A (a Ki ratio greater than or equal to 10 fold between the Ki in the presence of SAM and the Ki in the presence of MTA)
5.00 to 6.00	5.00 to 6.00	5.30 to 6.30	6.30 to 7.30	6.30 to 7.30	O=C(NC[C@H](O)CN1CCc2cc(OCc3cnco3)ccc2C1)c1cc(NC2COC2)nc(N2CCN(C(=O)C3CC3)CC2)n1 [Compound 290, (S)-2-(4-(cyclopropanecarbonyl)piperazin-1-yl)-N-(2-hydroxy-3-(6-(oxazol-5-ylmethoxy)-3,4-dihydroisoquinolin-2(1H)-yl)propyl)-6-(oxetan-3-ylamino)pyrimidine-4-carboxamide]	B* (an IC50 ratio greater than or equal to 3 fold but lower than 10 fold between the IC50 in the HAP1 MTAP-intact cell line and the HAP1 MTAP-deleted cell line)	A (a Ki ratio greater than or equal to 10 fold between the Ki in the presence of SAM and the Ki in the presence of MTA)
5.00 to 6.00	5.00 to 6.00	5.30 to 6.30	6.30 to 7.30	6.30 to 7.30	O=C(NC[C@H](O)CN1CCc2cc(OCc3cnco3)ccc2C1)c1ccc(OC2CCN(Cc3ccccc3)CC2)cc1 [Compound 291, (S)-4-((1-benzylpiperidin-4-yl)oxy)-N-(2-hydroxy-3-(6-(oxazol-5-ylmethoxy)-3,4-dihydroisoquinolin-2(1H)-yl)propyl)benzamide]	C* (an IC50 ratio of less than 3 fold between the IC50 in the HAP1 MTAP-intact cell line and the HAP1 MTAP-deleted cell line)	–
≤ 5.00	5.00 to 6.00	5.30 to 6.30	6.30 to 7.30	6.30 to 7.30	O=C(NC[C@H](O)CN1CCc2cc(OCc3cnco3)ccc2C1)c1cc(NC2CCC2)nc(N2CCOCC2)c1 [Compound 292, (S)-2-(cyclobutylamino)-N-(2-hydroxy-3-(6-(oxazol-5-ylmethoxy)-3,4-dihydroisoquinolin-2(1H)-yl)propyl)-6-morpholinoisonicotinamide]	C* (an IC50 ratio of less than 3 fold between the IC50 in the HAP1 MTAP-intact cell line and the HAP1 MTAP-deleted cell line)	A (a Ki ratio greater than or equal to 10 fold between the Ki in the presence of SAM and the Ki in the presence of MTA)
≤ 5.00	≤ 5.00	5.30 to 6.30	5.30 to 6.30	6.30 to 7.30	CC(C)N1CCN(c2nc(NC3COC3)cc(C(=O)NC[C@H](O)CN3CCc4c(ccc(OCc5cnco5)c4Cl)C3)n2)CC1 [Compound 293, (S)—N-(3-(5-chloro-6-(oxazol-5-ylmethoxy)-3N-dihydroisoquinolin-2(1H)-yl)-2-hydroxypropyl)-2-(4-isopropylpiperazin-1-yl)-6-(oxetan-3-ylamino)pyrimidine-4-carboxamide]	C* (an IC50 ratio of less than 3 fold between the IC50 in the HAP1 MTAP-intact cell line and the HAP1 MTAP-deleted cell line)	A (a Ki ratio greater than or equal to 10 fold between the Ki in the presence of SAM and the Ki in the presence of MTA)
